We go through one compound from US12084451B2, “Compositions and methods for reducing tactile dysfunction, anxiety, and social impairment” (President and Fellows of Harvard College, priority 2018, dated 2024).

The experiment has as its target hGABAA α1β3γ2 (Homo sapiens, UniProt P14867+P18507+P28472). The experiment is described as follows: hGABAA IonFlux HT PAM Assay, α1β3γ2. The format is cell-based. The text has this:
Ligand-gated ion channels targeted were hGABAA α1β3γ2 and hGABAA α2β3γ2.
Electrophysiological assays conducted to profile nine (9) compounds for activities on the on channel targets listed above for Positive Allosteric Modulator (PAM) activities using the IonFlux HT electrophysiological platform.
The parameters measured are described in the Data Analysis section.
All wells included a final DMSO concentration of 0.33% including all control wells.
All recordings were obtained from a holding potential of −60 mV. The compound addition sequence that was used for all additions was the same for all assays. […] The process was repeated with the next ascending concentration of test compound (FIG. 1).
All data were first exported to an Excel compatible data file and then analyzed using Graph Pad Prism software.

Sequence of hGABAA α1β3γ2 (P14867 28-456): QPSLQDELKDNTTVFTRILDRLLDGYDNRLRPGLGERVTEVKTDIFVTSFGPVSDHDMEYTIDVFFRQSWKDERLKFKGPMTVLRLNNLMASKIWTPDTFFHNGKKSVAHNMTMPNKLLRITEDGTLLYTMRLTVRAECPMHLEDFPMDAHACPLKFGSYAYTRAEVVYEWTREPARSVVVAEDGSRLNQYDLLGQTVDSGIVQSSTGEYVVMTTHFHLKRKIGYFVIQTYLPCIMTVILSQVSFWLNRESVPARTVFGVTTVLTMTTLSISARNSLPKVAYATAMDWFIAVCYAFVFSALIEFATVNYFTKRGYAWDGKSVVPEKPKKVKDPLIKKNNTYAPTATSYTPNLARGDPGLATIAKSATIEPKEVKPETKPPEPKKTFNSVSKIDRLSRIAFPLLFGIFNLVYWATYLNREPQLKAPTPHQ
Sequence of hGABAA α1β3γ2 (P28472 26-473): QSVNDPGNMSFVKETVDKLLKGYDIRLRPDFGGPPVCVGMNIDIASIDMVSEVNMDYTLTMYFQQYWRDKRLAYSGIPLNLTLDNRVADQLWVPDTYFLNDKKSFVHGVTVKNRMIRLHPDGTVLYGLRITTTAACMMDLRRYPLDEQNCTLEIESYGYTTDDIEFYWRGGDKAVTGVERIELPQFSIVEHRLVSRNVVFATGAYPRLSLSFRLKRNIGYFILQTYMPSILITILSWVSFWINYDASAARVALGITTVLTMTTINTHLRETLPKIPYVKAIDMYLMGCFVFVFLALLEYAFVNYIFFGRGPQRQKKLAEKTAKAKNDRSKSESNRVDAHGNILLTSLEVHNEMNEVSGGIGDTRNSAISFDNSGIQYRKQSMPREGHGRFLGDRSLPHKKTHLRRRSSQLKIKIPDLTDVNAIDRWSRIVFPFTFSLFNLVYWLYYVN
Sequence of hGABAA α1β3γ2 (P18507 40-475): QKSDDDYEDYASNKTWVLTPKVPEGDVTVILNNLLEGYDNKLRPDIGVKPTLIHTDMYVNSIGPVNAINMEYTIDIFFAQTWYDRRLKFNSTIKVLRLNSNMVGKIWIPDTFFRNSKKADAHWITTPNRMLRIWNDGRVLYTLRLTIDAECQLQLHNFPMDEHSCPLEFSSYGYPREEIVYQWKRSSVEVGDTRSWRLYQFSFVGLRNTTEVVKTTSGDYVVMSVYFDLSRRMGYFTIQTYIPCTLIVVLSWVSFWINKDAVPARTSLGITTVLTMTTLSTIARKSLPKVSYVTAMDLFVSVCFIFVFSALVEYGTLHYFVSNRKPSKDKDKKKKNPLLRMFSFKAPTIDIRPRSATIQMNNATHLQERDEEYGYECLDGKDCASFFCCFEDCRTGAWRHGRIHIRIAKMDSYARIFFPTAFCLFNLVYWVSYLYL

On to `O=C(O)C1=CCNCC1` [Isoguvacine], for which the “(%) Control mean” value runs as follows: (0.001 μM + EC20 GABA) 103.6 % Control; (0.01 μM + EC20 GABA) 109.8 % Control; (0.1 μM + EC20 GABA) 113.7 % Control; (1 μM + EC20 GABA) 119.8 % Control; (10 μM + EC20 GABA) 73.0 % Control; (100 μM + EC20 GABA) 8.0 % Control. Besides, the “(%) Control n1” value (0.001 μM + EC20 GABA) came out at 99.0 % Control; the “(%) Control n1” value (0.01 μM + EC20 GABA) amounted to 108.8 % Control; the “(%) Control n1” value (0.1 μM + EC20 GABA) was found to be 110.0 % Control; the “(%) Control n1” value (1 μM + EC20 GABA) amounted to 124.5 % Control; the “(%) Control n1” value (10 μM + EC20 GABA) is listed as 76.1 % Control; the “(%) Control n1” value (100 μM + EC20 GABA) was 7.6 % Control. The “(%) Control n2” value runs as follows: (0.001 μM + EC20 GABA) 108.2 % Control; (0.01 μM + EC20 GABA) 110.8 % Control; (0.1 μM + EC20 GABA) 117.4 % Control; (1 μM + EC20 GABA) 115.2 % Control; (10 μM + EC20 GABA) 69.9 % Control; (100 μM + EC20 GABA) 8.3 % Control. Moreover, the “Mean Maximal Effect (% of Control)” value (normalized to baseline peak current induced by EC20 GABA (1 μM) for 2 seconds) is 120 % of Control. Besides, the “Estimated EC50” value (positive modulation of EC20 GABA current) is “n/c*”.
